Experimental data taken from US20150315241A1, “Antibiotic Peptides” (priority 2007, published 2015).
Values after ≈ are worked out from the molar mass of the structure shown. Where two headings read alike, the source gives them in different places. Where a SMILES comes first, the peptide text is derived from it. [ ]: non-standard residue; d: D form. The star is where a group is joined. Orn(α-tetramethylguanidino) = CN(C)C(=N[C@@H](CCCN)C(=O)*)N(C)C; hArg = N=C(N)NCCCC[C@H](N)C(=O)O; Orn = NCCC[C@H](N)C(=O)O; For = O=C*

Experiments:
B. subtilis 347 = assay type: cell-based, Bactillus subtillis
Method: (§1) The minimal inhibition concentrations (MIC) of the apidaecin-derived peptides and peptide-derivatives were determined by a growth inhibition assay using a serial peptide dilution in sterilized round-bottom 96-well plates (polystyrene, U-bottom, Greiner Bio-One GmbH) with a final volume of 100 μL per well. The bacteria, e.g., E. coli BL21 A1, were grown in nutrient broth (NB, Carl Roth GmbH+Co. KG, Karlsruhe, Germany) at 37° C. over night. To each well of the 96-well plate, 50 μL of the overnight culture adjusted to 5×10^6 CFU/mL in 1% TSB were added. Lyophilized peptides and peptidomimetics were dissolved in 1% TSB (tryptic soy broth) or water to give a final concentration of 250 μg/mL. Fifty μL of the peptide or peptidomimetics solution were added to the first well of a row on the plate and mixed. Fifty μL of the first well containing the peptide solution were transferred to the second well, mixed and again 50 μL transferred to the next well and so on. Thereby, a two-fold dilution series was obtained starting at 250 μg/mL in the first well down to 120 ng/mL in the 12th well of a row giving a final peptide or peptidomimetics concentration from 125 μg/mL (well 1) to 60 ng/mL (well 12). Plates were incubated at 37° C. for 20 hrs. The absorbance was measured at 595 nm using a TECAN micro plate spectrophotometer (Tecan, Germany). All peptides and peptidomimetics were measured in triplicates. Sterilized water was used as a negative control.
(§2) The bacteria strains were tested: • Eschericha coli 1103, 10233, BL 21 AI, DC 2, • Klebsiella pneumoniae 681, • Micrococcus luteus ATCC 10240, • Mycobacterium vaccae • Bactillus subtillis 347.

in vitro = in vitro ADME, mouse; conditions: 25% aqueous mouse serum, 37° C.; read-out: Half-life time
Method: Serum stability studies were carried out in duplicate as described by Hoffmann et al.. Briefly, 28 μL of an aqueous peptide or peptidomimetics solution (0.5 mg/mL) was added to 0.2 mL freshly pooled 25% mouse serum (Sigma-Aldrich GmbH, Taufkirchen, Germany) in water. The mixtures were incubated at 37° C. under gentle stirring. The proteins were precipitated with 40 μL of 15% aqueous TCA after incubation times of 0, 0.5, 1, 2, 4 and 6 h at 0° C. for 20 min before centrifuged (13500×G) at 4° C. for 5 min. The supernatants of all samples (240 μL) were neutralized with 1 mol/L aqueous NaOH and immediately stored at −20° C. The supernatants were analyzed by RP-HPLC using a linear acetonitrile gradient as described above with 0.1% TFA as ion pair reagent. Collected fractions of the main peaks were further analyzed by tandem mass spectrometry (MALDI-TOF/TOF-MS, 4700 Proteomics Analyzer, Applied Biosystems GmbH, Weiterstadt, Germany) in positive ion reflector mode using α-cyanohydroxycinnamic acid (50% CH3CN in 0.1% aqueous TFA) as matrix to identify the degradation products of the peptides and peptidomimetics, i.e., metabolites, at the different time points. Serum control samples consisted of 200 μL of pooled 25% mouse serum in water, which were also precipitated with 40 μL 15% aqueous TCA, as described before. Peptide reference samples consisted of 28 μL of the peptide stock solution diluted in 0.2 mL water and 40 μL of 15% aqueous trichloroacetic acid (TCA).

M. luteus ATCC 10240 = assay type: cell-based, Micrococcus luteus
Method in brief: (§3)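 Bacteria grown overnight in NB at 37° C. were adjusted to 5×10^6 CFU/mL in 1% TSB and mixed 1:1 with a two-fold peptide series (final 125 μg/mL–60 ng/mL). After 20 hrs at 37° C., A595 was read; triplicates.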

K. pneumonia 681 = assay type: cell-based, Klebsiella pneumoniae
Method: as §1, §2

E. coli 1103 = assay type: cell-based, Escherichia coli
Method: as §1, §2

S. typhi S5 = assay type: cell-based, Salmonella typhi
Method in brief: (§4)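 Peptides were serially diluted two-fold in 1% TSB to give final concentrations from 125 μg/mL to 60 ng/mL. Bacteria grown overnight in nutrient broth at 37° C. were added at 5×10^6 CFU/mL. Plates were incubated 20 hrs at 37° C. and absorbance at 595 nm recorded.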

E. coli BL 21 AI = experiment: Growth inhibition assay (MIC); assay type: cell-based, Escherichia coli; conditions: 1% TSB, 37° C., 20 hrs
Method in brief: as §3

E. coli 45849 = experiment: Growth inhibition assay (MIC); assay type: cell-based, Escherichia coli; conditions: multidrug resistant strain; 1% TSB, 37° C., 20 hrs
Method in brief: as §4

[1] = tested on: K. Pneumonia K6, ATCC 700603; experiment: Growth inhibition assay (MIC); assay type: cell-based, Klebsiella pneumoniae; conditions: multidrug resistant strain; 1% TSB, 37° C., 20 hrs
Method in brief: as §4

K. Pneumonia 123132 = experiment: Growth inhibition assay (MIC); assay type: cell-based, Klebsiella pneumoniae; conditions: multidrug resistant strain; 1% TSB, 37° C., 20 hrs
Method in brief: as §4

[2] = tested on: S. enterica subsp. Enterica serovar. typhi G10215 ATCC 700408; assay type: cell-based, Salmonella enterica
Method in brief: as §4

E. coli D31 = assay type: cell-based, Escherichia coli
Method in brief: as §4

E. coli 10233 = assay type: cell-based, Escherichia coli
Method: as §1, §2

[3] = multidrug resistant strain, 1% TSB, 37° C., 20 hrs

Compound	MIC B. subtilis 347 (B. subtilis 347; 347, 20 h)	MIC M. luteus ATCC 10240 (M. luteus ATCC 10240; ATCC 10240, 20 h)	MIC K. pneumonia 681 (K. pneumonia 681; 20 h)	MIC E. coli 1103 (E. coli 1103; 1103, 20 h)	MIC E. coli BL 21 AI (E. coli BL 21 AI)	MIC E. coli 45849 (E. coli 45849)	MIC K. Pneumonia K6, ATCC 700603 [1]	MIC K. Pneumonia 123132 (K. Pneumonia 123132)	also measured
CC[C@H](C)[C@H](NC(=O)[C@H](Cc1ccc(O)cc1)NC(=O)[C@@H](NC(=O)[C@@H]1CCCN1C(=O)[C@H](CCCNC(=N)N)NC(=O)[C@H](CC(N)=O)NC(=O)[C@H](CC(N)=O)NC(=O)[C@H](CCCN)N=C(N(C)C)N(C)C)C(C)C)C(=O)N1CCC[C@H]1C(=O)N[C@@H](CCCNC(=N)N)C(=O)N1CCC[C@H]1C(=O)N[C@@H](CCCNC(=N)N)C(=O)N1CCC[C@H]1C(=O)N1CCC[C@H]1C(=O)N[C@@H](Cc1c[nH]cn1)C(=O)N1CCC[C@H]1C(=O)N[C@@H](CCCN)C(=O)N[C@@H](CC(C)C)C(N)=O [compound 134] ({Orn(α-tetramethylguanidino)}-NNRPVYIPRPRPPHP[Orn]L-NH2; N-terminus and C-terminus assumed)	>128 µg/mL	4 µg/mL (≈ 1.78 µM)	16 µg/mL (≈ 7.12 µM)	32 µg/mL (≈ 14.2 µM)	–	–	–	–	half-life (in vitro): > 6 h
CC[C@H](C)[C@H](NC(=O)[C@H](Cc1ccc(O)cc1)NC(=O)[C@@H](NC(=O)[C@@H]1CCCN1C(=O)[C@H](CCCNC(=N)N)NC(=O)[C@H](CC(N)=O)NC(=O)[C@H](CC(N)=O)NC(=O)[C@H](CCCN)N=C(N(C)C)N(C)C)C(C)C)C(=O)N1CCC[C@H]1C(=O)N[C@@H](CCCNC(=N)N)C(=O)N1CCC[C@H]1C(=O)N[C@@H](CCCNC(=N)N)C(=O)N1CCC[C@H]1C(=O)N1CCC[C@H]1C(=O)N[C@@H](Cc1c[nH]cn1)C(=O)N1CCC[C@H]1C(=O)N[C@@H](CCCCNC(=N)N)C(=O)N[C@@H](CC(C)C)C(N)=O [compound 155] ({Orn(α-tetramethylguanidino)}-NNRPVYIPRPRPPHP[hArg]L-NH2)	32 µg/mL (≈ 13.9 µM)	1 µg/mL (≈ 0.434 µM)	4 µg/mL (≈ 1.74 µM)	4 µg/mL (≈ 1.74 µM)	4 µg/mL (≈ 1.74 µM)	4 µg/mL (≈ 1.74 µM)	4 µg/mL (≈ 1.74 µM)	2 µg/mL (≈ 0.868 µM)	MIC S. typhi S5 (S. typhi S5; S5, 20 h): 4 µg/mL (≈ 1.74 µM); half-life (in vitro): > 6 h; MIC S. enterica subsp. Enterica serovar. typhi G10215 ATCC 700408 ([2]; ATCC 700408, 20 h): 0.5 µg/mL (≈ 0.217 µM); MIC E. coli D31 (E. coli D31; D31, 20 h): 4 µg/mL (≈ 1.74 µM)
85 (GNNRPVYIPQPRPPHPRL) [compound 85]	–	–	–	–	0.24 µg/mL	2 µg/mL	64 µg/mL	16 µg/mL	MIC B. subtilis 347 (B. subtilis 347; 1% TSB, 37° C., 20 hrs): >125 µg/mL; MIC S. typhi S5 (S. typhi S5; [3]): 0.5 µg/mL; MIC M. luteus ATCC 10240 (M. luteus ATCC 10240; 1% TSB, 37° C., 20 hrs): 15.63 µg/mL; MIC K. pneumonia 681 (K. pneumonia 681; 1% TSB, 37° C., 20 hrs): 31.25 µg/mL; MIC S. enterica subsp. Enterica serovar. typhi G10215 ATCC 700408 [2, 3]: 0.5 µg/mL; MIC E. coli D31 (E. coli D31; [3]): 16 µg/mL; MIC E. coli 10233 (E. coli 10233; 1% TSB, 37° C., 20 hrs): 1.95 µg/mL
H-LRPHPPRPQPIYVPRNNG-NH2 [compound 141]	>125 µg/mL	>125 µg/mL	>125 µg/mL	>125 µg/mL	>125 µg/mL	–	–	–	MIC E. coli 10233 (E. coli 10233; 10233, 20 h): >125 µg/mL
CC[C@H](C)[C@H](NC(=O)[C@H](Cc1ccc(O)cc1)NC(=O)[C@@H](NC(=O)[C@@H]1CCCN1C(=O)[C@H](CCCNC(=N)N)NC(=O)[C@H](CC(N)=O)NC(=O)[C@H](CC(N)=O)NC(=O)[C@H](CCCN)NC(C)=O)C(C)C)C(=O)N1CCC[C@H]1C(=O)N[C@@H](CCCNC(=N)N)C(=O)N1CCC[C@H]1C(=O)N[C@@H](CCCNC(=N)N)C(=O)N1CCC[C@H]1C(=O)N1CCC[C@H]1C(=O)N[C@@H](Cc1c[nH]cn1)C(=O)N1CCC[C@H]1C(=O)N[C@@H](CCCCNC(=N)N)C(=O)N[C@@H](CC(C)C)C(N)=O [compound 131] (Ac-[Orn]NNRPVYIPRPRPPHP[hArg]L-NH2)	32 µg/mL (≈ 14.2 µM)	0.5 µg/mL (≈ 0.222 µM)	16 µg/mL (≈ 7.12 µM)	16 µg/mL (≈ 7.12 µM)	4 µg/mL (≈ 1.78 µM)	–	–	–	half-life at 0.061 mg/mL (in vitro): 2 h
CC[C@H](C)[C@H](NC(=O)[C@H](Cc1ccc(O)cc1)NC(=O)[C@@H](NC(=O)[C@@H]1CCCN1C(=O)[C@H](CCCNC(=N)N)NC(=O)[C@H](CC(N)=O)NC(=O)[C@H](CC(N)=O)NC(=O)CNC=O)C(C)C)C(=O)N1CCC[C@H]1C(=O)N[C@@H](CCC(N)=O)C(=O)N1CCC[C@H]1C(=O)N[C@@H](CCCNC(=N)N)C(=O)N1CCC[C@H]1C(=O)N1CCC[C@H]1C(=O)N[C@@H](Cc1c[nH]cn1)C(=O)N1CCC[C@H]1C(=O)N[C@@H](CCCNC(=N)N)C(=O)N[C@@H](CC(C)C)C(N)=O [compound 84] (For-GNNRPVYIPQPRPPHPRL-NH2)	>125 µg/mL	3.91 µg/mL (≈ 1.83 µM)	62.5 µg/mL (≈ 29.3 µM)	–	1.95 µg/mL (≈ 0.913 µM)	0.5 µg/mL (≈ 0.234 µM)	32 µg/mL (≈ 15 µM)	32 µg/mL (≈ 15 µM)	MIC S. typhi S5 (S. typhi S5; S5, 20 h): 0.25 µg/mL (≈ 0.117 µM); MIC S. enterica subsp. Enterica serovar. typhi G10215 ATCC 700408 ([2]; ATCC 700408, 20 h): 0.25 µg/mL (≈ 0.117 µM); MIC E. coli D31 (E. coli D31; D31, 20 h): 1 µg/mL (≈ 0.468 µM); MIC E. coli 10233 (E. coli 10233; 10233, 20 h): 1.95 µg/mL (≈ 0.913 µM)
135 (PEG3000-[Orn]NNRPVYIPRPRPPHPRL-NH2) [compound 135]	–	–	–	–	>125 µg/mL	–	–	–	MIC B. subtilis 347 (B. subtilis 347; 1% TSB, 37° C., 20 hrs): >125 µg/mL; MIC M. luteus ATCC 10240 (M. luteus ATCC 10240; 1% TSB, 37° C., 20 hrs): 8 µg/mL; MIC K. pneumonia 681 (K. pneumonia 681; 1% TSB, 37° C., 20 hrs): >125 µg/mL; MIC E. coli 10233 (E. coli 10233; 1% TSB, 37° C., 20 hrs): >125 µg/mL; MIC E. coli 1103 (E. coli 1103; 1% TSB, 37° C., 20 hrs): >125 µg/mL
